According to ChEMBL document CHEMBL6127052, “Discovery of membrane-targeting amphiphilic honokiol derivatives containing an oxazolethione moiety to combat methicillin-resistant Staphylococcus aureus (MRSA) infections” (Eur J Med Chem, 2024):
The source made the active and inactive calls. The calls are words filed in the database; no cut-off is given here.

Legend:
[1] = tested on: Staphylococcus aureus; assay: Antibacterial activity against methicillin-resistant Staphylococcus aureus clinical isolate M12 infected in sepsis BALB/c mouse model assessed as decrease in bacterial load in spleen at 12 mg/kg, ip administered consecutively at 12 hr-interval for 24 hrs measured after 24 hrs post-last dose; assay type: functional; conditions: time 48 hrs
[2] = tested on: Staphylococcus aureus; assay: Bactericidal activity against Staphylococcus aureus ATCC 29213 assessed as inhibition of bacterial growth at 4 times MIC incubated upto 8 hrs by time-kill assay; assay type: functional, organism-based
[3] = tested on: Staphylococcus aureus; assay: Antibacterial activity against methicillin-resistant Staphylococcus aureus clinical isolate M11 by CLSI based micro-broth dilution method; assay type: functional
[4] = Toxicity in KM mouse assessed as edema in lung epithelial cells at 20 mg/kg, sc measured after 24 hrs by H and E staining based analysis; assay type: organism-based; conditions: in vivo
[5] = Toxicity in KM mouse assessed as necrosis in cardiac muscle fibers at 20 mg/kg, sc measured after 24 hrs by H and E staining based analysis; assay type: organism-based; conditions: in vivo
[6] = tested on: Staphylococcus aureus; assay: Disruption of cell membrane in methicillin-resistant Staphylococcus aureus clinical isolate M12 assessed as fold increase in DNA leakage at 8 times MIC incubated for 4 hrs by […] relative to control; assay type: functional
[7] = tested on: Staphylococcus aureus; assay: Antibacterial activity against methicillin-resistant Staphylococcus aureus clinical isolate M12 infected in KM mouse assessed as reduction in IL-6 level at infection site at 10 mg/kg, sc measured after 24 hrs by ELISA; assay type: functional
[8] = Toxicity in KM mouse assessed as pathological change in skin at 20 mg/kg, sc measured after 24 hrs by H and E staining based analysis; assay type: organism-based; conditions: in vivo
[9] = Toxicity in KM mouse assessed as degeneration in cardiac muscle fibers at 20 mg/kg, sc measured after 24 hrs by H and E staining based analysis; assay type: organism-based; conditions: in vivo
[10] = Toxicity in KM mouse assessed as inflammatory cells in skin section at 20 mg/kg, sc measured after 24 hrs by H and E staining based analysis; assay type: organism-based; conditions: in vivo
[11] = Toxicity in KM mouse infected with methicillin-resistant Staphylococcus aureus clinical isolate M12 assessed as histopathological abnormality in liver at 5 to 10 mg/kg, sc measured after 24 hrs by H and E staining based analysis; assay type: organism-based; conditions: in vivo, dose 5-10 mg/kg
[12] = Toxicity in KM mouse assessed as edema in hepatocytes at 20 mg/kg, sc measured after 24 hrs by H and E staining based analysis; assay type: organism-based; conditions: in vivo
[13] = Toxicity in KM mouse assessed as change in HGB level at 20 mg/kg, sc measured after 24 hrs; assay type: organism-based; conditions: in vivo
[14] = tested on: Staphylococcus aureus; assay: Disruption of cell membrane in methicillin-resistant Staphylococcus aureus clinical isolate M12 assessed as fold increase in protein leakage at 8 times MIC incubated for 4 hrs by BCA assay relative to control; assay type: functional
[15] = tested on: Staphylococcus aureus; assay: (§1) Antibacterial activity against methicillin-resistant Staphylococcus aureus clinical isolate M12 infected in sepsis BALB/c mouse model assessed as decrease in deformation of hepatocytes at 6 mg/kg, ip administered consecutively at 12 hr-interval for 24 hrs measured after 24 hrs post-last dose by H and E staining based analysis; assay type: functional, organism-based; conditions: time 48.0 hrs
[16] = Toxicity in KM mouse assessed as inflammatory cell infiltration in renal tubular epithelial cells at 20 mg/kg, sc measured after 24 hrs by H and E staining based analysis; assay type: organism-based; conditions: in vivo
[17] = Toxicity in BALB/c mouse assessed as necrosis in renal tubular epithelial cells at 15 mg/kg, ip bid for 7 days; assay type: organism-based; conditions: in vivo, 168 h, time 7 day
[18] = Toxicity in KM mouse assessed as inflammatory cell infiltration in hepatocytes at 20 mg/kg, sc measured after 24 hrs by H and E staining based analysis; assay type: organism-based; conditions: in vivo
[19] = Toxicity in KM mouse assessed as edema in cardiac muscle fibers at 20 mg/kg, sc measured after 24 hrs by H and E staining based analysis; assay type: organism-based; conditions: in vivo
[20] = tested on: Staphylococcus aureus; assay: as §1, with “degeneration” for “deformation”; assay type: functional, organism-based; conditions: time 48.0 hrs
[21] = Stability in sheep plasma infected with methicillin-resistant Staphylococcus aureus clinical isolate M12 at 16 ug/ml pretreated compound with plasma for 6 hrs followed by bacterial infection for 16 to 18 hrs; assay type: ADME, cell-free, Ovis aries; conditions: at 16 µg/mL, time 22-24 hrs
[22] = Toxicity in KM mouse infected with methicillin-resistant Staphylococcus aureus clinical isolate M12 assessed as damage in kidney at 5 to 10 mg/kg, sc measured after 24 hrs by H and E staining based analysis; assay type: organism-based; conditions: in vivo, dose 5-10 mg/kg
[23] = Toxicity in KM mouse infected with methicillin-resistant Staphylococcus aureus clinical isolate M12 assessed as histopathological abnormality in kidney at 5 to 10 mg/kg, sc measured after 24 hrs by H and E staining based analysis; assay type: organism-based; conditions: in vivo, dose 5-10 mg/kg
[24] = Toxicity in KM mouse assessed as inflammatory cell infiltration in cardiac muscle fibers at 20 mg/kg, sc measured after 24 hrs by H and E staining based analysis; assay type: organism-based; conditions: in vivo
[25] = tested on: Staphylococcus aureus; assay: Antibacterial activity against methicillin-resistant Staphylococcus aureus clinical isolate M12 by CLSI based micro-broth dilution method; assay type: functional
[26] = Cytotoxicity against human L02 cells assessed as cell viability at 64 ug/ml by CCK8 assay relative to control; assay type: toxicity, cell-based; conditions: at 64 µg/mL, read-out: Activity
[27] = Toxicity in KM mouse assessed as change in HCT level at 20 mg/kg, sc measured after 24 hrs; assay type: organism-based; conditions: in vivo
[28] = Toxicity in KM mouse assessed as pathological change in spleen at 20 mg/kg, sc measured after 24 hrs by H and E staining based analysis; assay type: organism-based; conditions: in vivo
[29] = tested on: Staphylococcus aureus; assay: Antibacterial activity against methicillin-resistant Staphylococcus aureus clinical isolate M13 by CLSI based micro-broth dilution method; assay type: functional
[30] = tested on: Staphylococcus aureus; assay: Antibacterial activity against methicillin-resistant Staphylococcus aureus clinical isolate M20 by CLSI based micro-broth dilution method; assay type: functional
[31] = tested on: Staphylococcus aureus; assay: Induction of morphological changes in methicillin-resistant Staphylococcus aureus clinical isolate M12 assessed as irregular change in cell surface at 8 times MIC incubated for 4 hrs by SEM analysis; assay type: functional, organism-based
[32] = tested on: Staphylococcus aureus; assay: Induction of membrane permeability in methicillin-resistant Staphylococcus aureus clinical isolate M12 at 8 to 32 times MIC measured every 2 mins for 10 times by SYTOX Green dye based analysis; assay type: functional, organism-based
[33] = tested on: Staphylococcus aureus; assay: as §1, with “necrosis in” for “deformation of”; assay type: functional, organism-based; conditions: time 48.0 hrs
[34] = tested on: Staphylococcus aureus; assay: Antibacterial activity against methicillin-resistant Staphylococcus aureus clinical isolate M12 incubated for 16 to 18 hrs in presence of phosphatidylethanolamine; assay type: functional; conditions: time 16-18 hrs
[35] = Toxicity in KM mouse assessed as degeneration of renal tubular epithelial cells at 20 mg/kg, sc measured after 24 hrs by H and E staining based analysis; assay type: organism-based; conditions: in vivo
[36] = tested on: Staphylococcus aureus; assay: Antibacterial activity against methicillin-resistant Staphylococcus aureus clinical isolate M12 infected in sepsis BALB/c mouse model assessed as decrease in bacterial load in kidney at 12 mg/kg, ip administered consecutively at 12 hr-interval for 24 hrs measured after 24 hrs post-last dose; assay type: functional; conditions: time 48 hrs
[37] = Toxicity in BALB/c mouse assessed as change in blood biochemistry index at 15 mg/kg, ip bid for 7 days; assay type: organism-based; conditions: in vivo, 168 h, time 7 day

C=CCc1cc(-c2ccc(OCCC[N+](C)(C)CC(=O)NCCCC)c(CC=C)c2)c2oc(=S)n(Cc3ccc(F)cc3)c2c1.[Br-]
Activity [1]: 1.67 log10CFU/g | Activity [2]: Active | MIC [3]: 4 µg/mL | Activity [4]: Non-Toxic | Activity [5]: Non-Toxic | fold change (FC) [6]: ~4 | Activity [7]: 66.7 pg/mL | Activity [8]: Non-Toxic | Activity [9]: Non-Toxic | Activity [10]: Non-Toxic | Activity [11]: Non-Toxic | Activity [12]: Non-Toxic | Activity [13]: Non-Toxic | fold change (FC) [14]: ~4 | Activity [15]: inactive | Activity [16]: Non-Toxic | Activity [17]: Non-Toxic | Activity [18]: Non-Toxic | Activity [19]: Non-Toxic | Activity [20]: inactive | Stability [21]: Stable | Activity [22]: Non-Toxic | Activity [23]: Non-Toxic | Activity [24]: Non-Toxic | MIC [25]: 2 µg/mL | viability at 64 ug/ml [26]: ~70% | Activity [27]: Non-Toxic | Activity [28]: Non-Toxic | MIC [29]: 4 µg/mL | MIC [30]: 2 µg/mL | Activity [31]: Active | Activity [32]: Active | Activity [33]: inactive | MIC [34]: 2 µg/mL | Activity [35]: Non-Toxic | Activity [36]: 1.45 log10CFU/g | Activity [37]: Non-Toxic
